This note sets out measurements from patent US6211209A, “Method of inhibiting connective tissue degradation” (Warner-Lambert Company, priority 1998, dated 2001).

Bounds are passed on as bounds.

Usually inhibition stands for the share of the control response that was lost under treatment. A higher inhibition goes with a response far below the control.

For assay [1], the system named is 92 kDa gelatinase. Kind of assay: Gelatin zymography of bovine nasal cartilage conditioned media: expression of 92 kDa gelatinase. Type of assay: cell-based. On the procedure:
To evaluate the effects of the compounds of the present invention on the expression of 72 kDa and 92 kDa gelatinases, samples obtained from the bovine nasal cartilage study (described above) were subjected to gelatin zymography.
Separating gels (8%) were made by combining 400 μL gelatin (25 mg/mL) with: 2.5 mL Tris (1.5 M); 100 μL SDS (10%); 2.6 mL acrylamide (30%); 10 μL TEMED; 4.6 mL dH2 O; 100 μL ammonium persulfate (10%). Stacking gels (4.5%) were formed by combining: 2.5 mL Tris (0.5 M); 100 μL SDS (10%); 1.5 mL acrylamide (30%); 10 μL TEMED; 5.8 mL dH2 O; 100 μL ammonium persulfate (10%).
Bovine nasal cartilage conditioned media was diluted (1:15) using sample buffer 1X (2% SDS, 15% glycerol, 0.01% bromophenol blue, 0.25M Trizma Base, pH 6.8). Thirty microliters of each of the diluted samples and molecular weight standards were subjected to electrophoresis at 4° C. under constant current conditions (20 mA of current/gel) using Tris/Glycine running buffer (0.5 M Trizma Base, pH 8.8 using glycine, 1% SDS) that was diluted 1:20 before use.
After completion of the electrophoretic procedure, the gel was first washed twice for 15 minutes in 2.5% Triton X-100. The gel was then rinsed with the gel incubation buffer (0.05 M Tris, pH 8.2, 0.005 M CaCl2, 0.5 μM ZnCl2) and incubated overnight in this buffer at 37° C. After the incubation period, the gel was stained for 30 minutes in 0.125% Coomassie and destained using 10% methanol/5% acetic acid destaining solution.

The subject of assay [2] is human articular cartilage. Nature of the assay: Human articular cartilage assay: IL-1α-induced proteoglycan loss from osteoarthritic cartilage. In kind it is cell-based. As to conditions: for % Proteoglycan Release: 30 μM, with IL-1α, mean ± SE. The source says:
Human articular cartilage was obtained from St. Joseph Hospital in Ypsilanti, Mich.; cell culture reagents from Gibco (Grand Island, N.Y.); human recombinant Interleukin-1α (IL1α) from Genzyme (Cambridge, Mass.); DMB from Polysciences (Warrington, Pa.); Falcon 24 well flat-bottom tissue culture plates from Becton Dickinson (Lincoln Park, N.Y.); Papain from Sigma (P-3125, St. Louis, Mo.); high purity dimethyl sulfoxide from Burdic & Jackson (081-1, Distributed by Baxter Healthcare, McGraw Park, Ill.); Sarstedt vials for 96-vial aluminum racks (Sarstedt, Newton, N.C.); Cetus Pro/Pette (Perkin Elmer, Norwalk, Conn.); Biomek 1000 (Beckman, Fullerton, Calif.)
The assay was performed in two phases. The cartilage pieces were first incubated with IL-1α in the presence of compound. The amount of proteoglycan released was then quantified by measuring chondroitin sulfate present in the media using the 1,9-Dimethylmethylene Blue Assay (DMB).
The articular cartilage used in this study was obtained from osteoarthritis patients undergoing total knee or hip replacment surgery. The ages of the patients ranged from 50 to 70 years. To establish cartilage organ cultures, uniform cartilage slices measuring 11 mm×11 mm were dissected from the underlying bone using a #20 scalpel blade and placed in isotonic saline. The cartilage slices were washed in Gey's balanced salt solution and placed (one piece/well) in Falcon 24 well flat-bottom tissue culture plates (Becton Dickinson, Lincoln Park, N.J.). The cartilage organ cultures were maintained in complete Ham's F-12 (supplemented with 10% fetal calf serum, 6.5 mg/mL Hepes, 58.5 μg/mL glutamine, 200 μg/mL MgSO4, 100 units/mL Pencillin G sodium, 100 μg/mL streptomycin sulfate, and 0.25 μg/mL amphotericin B) at 37° C. in a humidified atmosphere of 95% air and 5% CO2. The cartilage cultures were allowed to equilibrate in this medium for 4 to 5 days. Just before starting the experiment, the serum-containing spent medium was removed and cartilage cultures rinsed with 1 mL F-12 Nutrient Mixture (without phenol red) in order to remove residual FCS. Each treatment group was done in triplicate. […] All the media removed from cultures was collected and analyzed using the 1,9 DMB assay. At the end of experimental period, cartilage pieces were digested with papain and analysed using the 1,9 DMB assay.
The ability of a compound to inhibit proteoglycan release from cartilage pieces was quantified by measuring chondroitin sulfate. […] This color change was measured using a Titertek Multiscan MCC 340 plate reader at 540 nm. […] It was necessary to dilute (1:5, 1:10) the medium before a DMB assay was performed by adding 10 μL of collected media to 290 μL DMB (16 mg dye/L of 0.1 M formate buffer, pH 3.5, containing 5 mL ethanol) and reading at 540 nm. […]

Regarding `S=c1[nH]nc(-c2ccccc2Nc2ccccc2)o1` [Compound 1, 5-(2-Phenylamino-phenyl)-3H-[1,3,4]oxadiazole-2-thione], in assay [1] (various concentrations, IL-1β-induced, FIG. 1), the “inhibiting expression of IL-1β-induced 92 kDa gelatinase” value is on record as “effective in inhibiting expression of IL-1β-induced 92 kDa gelatinase in a dose-dependent manner”. For the same compound, the “specificity of effects (92 kDa versus 72 kDa gelatinase)” value in assay [1] (versus 72 kDa gelatinase) is on record as “specific to 92 kDa”. Besides, the “% Proteoglycan Release” value in assay [2] (48 hours, n = 3 (control 3.7, IL-1α 9.0)) is listed as 4.0 ± 0.2%; in assay [2] (96 hours, n = 3 (control 5.7, IL-1α 14.4)) it was 7.4 ± 0.4%; in assay [2] (144 hours, n = 3 (control 7.0, IL-1α 16.9)), 10.0 ± 0.8%. The inhibition at 30 µM in assay [2] (over the course of the experiment, human osteoarthritic cartilage) was > 70%.
